From patent publication US20250382332A1, “NOVEL ALPHA-FACTOR BASED PEPTIDES WITH ANTIFUNGAL ACTIVITY” (INVAIO SCIENCES, INC., priority 2024, published 2025)
Peptide text beside a SMILES is read from it.

System: Botrytis cinerea (B05.10)
Assay: Resazurin antifungal assay of 180 alpha-factor peptide variants towards Botrytis (Example 2)
Format: cell-based
Set-up: key to active against Botrytis at 15 μM / active against Botrytis at 10 μM: Peptides that showed greater than 90% inhibition were considered active against Botrytis
Conditions: for Inhibition at 10 μM: peptide 10 μM; for Inhibition at 20 μM: peptide 20 μM; for Inhibition at 50 μM: peptide 50 μM; for Inhibition at 100 μM: peptide 100 μM
Description: The antifungal activity of 180 alpha-factor peptide variants towards Botrytis was tested. Experimental design:
Peptides corresponding to SEQ ID NO: 1-180 were chemically synthesized using the solid-phase synthesis method and resuspended in water to a stock solution of 1 mM. The stock solution was aliquoted in cryovials and stored at −80° C.
The Botrytis cinerea culture (B05.10) isolate was acquired from the Centraalbureau voor Schimmelcultures, the Netherlands. The Botrytis fungus was propagated on 0.5% V8 agar plates (200 ml V8 Juice, 3 g CaCO3, 15 g agar, 800-ml millipore water) at 20° C., in a 12 h photoperiod for 21 days.
Fungal conidia were harvested by scraping a Botrytis plate flooded with 1 ml water with 0.1% Tween 80 solution. Conidia were then collected in a 50 ml falcon tube by passing the solution through a 40 micron filter. The solution was then centrifuged at 6000 rpm and the pellet was resuspended in 1 ml of 20% glycerol. The conidia concentration of the resulting solution was counted using a hemocytometer. The stock was diluted to […] using 20% glycerol and frozen in 100 μl aliquots in −80° C. until further use.
Peptides were tested for activity against Botrytis, using the resazurin assay. For this, fungal stock conidia was first diluted to 5000 conidia/well. 50 μl of the spore suspension was added to each well of the sterile 96-well clear bottom testing plate and mixed with 50 μl of peptide solutions to a final concentration of 100, 50, 20, 15 and 10 μM. The plate was incubated for 24 h at 20° C. After 24 h, 10 μl of resazurin dye was added to the microtiter plate and incubated again for […]. Fluorescence was measured at 570/620 nm after 4 h of incubation with resazurin.
Growth inhibition was calculated by subtracting the fluorescence values of conidia only wells from sample wells and depicted as % inhibition of fungal growth. Four technical replicates were used for all treatments.

[1] = % inhibition of fungal growth, Botrytis conidia, resazurin

Row | SMILES | Inhibition at 10 μM [1] [%] | Inhibition at 20 μM [1] [%] | Inhibition at 50 μM [1] [%] | Inhibition at 100 μM [1] [%] | Inhibition at 15 μM (% inhibition of fungal growth, Botrytis conidia, peptide 15 μM, resazurin) [%] | active against Botrytis at 15 μM (peptide 15 μM)
1 | CSCC[C@H](NC(=O)[C@@H]1CCCN1C(=O)[C@H](CCC(N)=O)NC(=O)CNC(=O)[C@@H]1CCCN1C(=O)[C@H](Cc1c[nH]c2ccccc12)NC(=O)[C@H](CC(C)C)NC(=O)[C@H](CCCCN)NC(=O)[C@H](CC(C)C)NC(=O)[C@H](Cc1c[nH]c2ccccc12)NC(=O)[C@H](Cc1c[nH]cn1)NC(=O)[C@@H](N)CCCCN)C(=O)N[C@@H](Cc1ccc(O)cc1)C(=O)O [compound 14] (H-KHWLKLWPGQPMY-OH; N-terminus and C-terminus assumed) | <90 | <90 | 100 | 100 |  | 
2 | CC[C@H](C)[C@H](NC(=O)[C@H](CCCCN)NC(=O)[C@H](CC(C)C)NC(=O)[C@@H](NC(=O)[C@H](Cc1c[nH]cn1)NC(=O)[C@@H](N)Cc1c[nH]c2ccccc12)[C@@H](C)O)C(=O)N[C@@H](CCCCN)C(=O)N[C@@H](CCCCN)C(=O)NCC(=O)N[C@@H](CCC(=O)O)C(=O)N1CCC[C@H]1C(=O)N[C@@H](CCSC)C(=O)N[C@@H](Cc1ccc(O)cc1)C(=O)O [compound 15] (H-WHTLKIKKGEPMY-OH; N-terminus and C-terminus assumed) | <90 | <90 | 100 | 100 |  | 
3 | CSCC[C@H](NC(=O)CNC(=O)[C@H](CCC(N)=O)NC(=O)CNC(=O)[C@@H](NC(=O)[C@H](CCCCN)NC(=O)[C@H](Cc1ccccc1)NC(=O)[C@@H](NC(=O)[C@H](CC(C)C)NC(=O)[C@H](Cc1c[nH]c2ccccc12)NC(=O)[C@H](Cc1c[nH]cn1)NC(=O)[C@@H](N)Cc1c[nH]c2ccccc12)[C@@H](C)O)[C@@H](C)O)C(=O)N[C@@H](Cc1ccc(O)cc1)C(=O)O [compound 16] (H-WHWLTFKTGQGMY-OH; N-terminus and C-terminus assumed) | <90 | <90 | 100 | 100 |  | 
4 | CSCC[C@H](NC(=O)[C@@H]1CCCN1C(=O)[C@H](CCC(N)=O)NC(=O)CNC(=O)[C@@H]1CCCN1C(=O)[C@H](Cc1c[nH]c2ccccc12)NC(=O)[C@H](CC(C)C)NC(=O)[C@H](CCCCN)NC(=O)[C@H](CC(C)C)NC(=O)[C@H](Cc1ccccc1)NC(=O)[C@H](Cc1c[nH]cn1)NC(=O)[C@@H](N)CCCCN)C(=O)N[C@@H](Cc1ccc(O)cc1)C(=O)O [compound 17] (H-KHFLKLWPGQPMY-OH; N-terminus and C-terminus assumed) | <90 | <90 | 100 | 100 |  | 
5 | CSCC[C@H](NC(=O)[C@@H]1CCCN1C(=O)[C@H](CCC(N)=O)NC(=O)CNC(=O)[C@@H]1CCCN1C(=O)[C@H](CCCCN)NC(=O)[C@H](Cc1ccccc1)NC(=O)[C@H](CCCNC(=N)N)NC(=O)[C@H](CC(C)C)NC(=O)[C@H](Cc1ccccc1)NC(=O)[C@H](Cc1c[nH]cn1)NC(=O)[C@@H](N)CCCCN)C(=O)N[C@@H](Cc1ccc(O)cc1)C(=O)O [compound 18] (H-KHFLRFKPGQPMY-OH; N-terminus and C-terminus assumed) | <90 | 99.67 | 100 | 100 | 94.03 | active
6 | CC[C@H](C)[C@H](NC(=O)[C@H](Cc1c[nH]c2ccccc12)NC(=O)[C@H](CCCCN)NC(=O)[C@@H]1CCCN1)C(=O)N[C@@H](CCCNC(=N)N)C(=O)N[C@@H](CC(C)C)C(=O)N[C@@H](CCCCN)C(=O)N1CCC[C@H]1C(=O)NCC(=O)N[C@@H](CCC(N)=O)C(=O)N1CCC[C@H]1C(=O)N[C@@H](CCSC)C(=O)N[C@@H](Cc1ccc(O)cc1)C(=O)O [compound 19] (H-PKWIRLKPGQPMY-OH; N-terminus and C-terminus assumed) | <90 | <90 | 100 | 100 |  | 
7 | CSCC[C@H](NC(=O)[C@@H]1CCCN1C(=O)[C@H](CCC(N)=O)NC(=O)CNC(=O)[C@@H]1CCCN1C(=O)[C@H](CCCCN)NC(=O)[C@H](Cc1ccccc1)NC(=O)[C@H](CO)NC(=O)[C@H](CC(C)C)NC(=O)[C@H](Cc1c[nH]c2ccccc12)NC(=O)[C@H](Cc1c[nH]cn1)NC(=O)[C@@H](N)CCCCN)C(=O)N[C@@H](Cc1ccc(O)cc1)C(=O)O [compound 20] (H-KHWLSFKPGQPMY-OH; N-terminus and C-terminus assumed) | <90 | <90 | 100 | 100 |  | 
8 | CSCC[C@H](NC(=O)[C@H](CC(C)C)NC(=O)[C@H](CCC(N)=O)NC(=O)[C@@H](NC(=O)[C@H](Cc1c[nH]c2ccccc12)NC(=O)[C@H](Cc1c[nH]cn1)NC(=O)[C@@H](N)CCCCN)C(C)C)C(=O)N[C@@H](CCCCN)C(=O)NCC(=O)N[C@@H](CCC(N)=O)C(=O)N1CCC[C@H]1C(=O)N[C@@H](CCSC)C(=O)N[C@@H](Cc1ccc(O)cc1)C(=O)O [compound 21] (H-KHWVQLMKGQPMY-OH; N-terminus and C-terminus assumed) | <90 | <90 | 100 | 100 |  | 
9 | CSCC[C@H](NC(=O)[C@H](CCCCN)NC(=O)[C@H](Cc1ccccc1)NC(=O)[C@H](CCC(N)=O)NC(=O)[C@@H](NC(=O)[C@H](CC(C)C)NC(=O)[C@H](Cc1c[nH]cn1)NC(=O)[C@@H](N)CCCCN)C(C)C)C(=O)NCC(=O)N[C@@H](CCC(N)=O)C(=O)N1CCC[C@H]1C(=O)N[C@@H](CCSC)C(=O)N[C@@H](Cc1ccc(O)cc1)C(=O)O [compound 22] (H-KHLVQFKMGQPMY-OH; N-terminus and C-terminus assumed) | <90 | <90 | 100 | 100 |  | 
10 | CSCC[C@H](NC(=O)CNC(=O)[C@H](CCC(N)=O)NC(=O)CNC(=O)[C@H](CC(N)=O)NC(=O)[C@H](CCCCN)NC(=O)[C@H](CC(C)C)NC(=O)[C@H](C)NC(=O)[C@@H](NC(=O)[C@H](Cc1c[nH]c2ccccc12)NC(=O)[C@H](Cc1c[nH]cn1)NC(=O)[C@@H](N)Cc1c[nH]c2ccccc12)C(C)C)C(=O)N[C@@H](Cc1ccc(O)cc1)C(=O)O [compound 23] (H-WHWVALKNGQGMY-OH; N-terminus and C-terminus assumed) | <90 | <90 | 98.68 | 100 |  | 
11 | CSCC[C@H](NC(=O)[C@@H]1CCCN1C(=O)[C@H](CCC(N)=O)NC(=O)CNC(=O)[C@@H]1CCCN1C(=O)[C@H](CCCCN)NC(=O)[C@H](Cc1ccccc1)NC(=O)[C@H](CC(N)=O)NC(=O)[C@H](CC(C)C)NC(=O)[C@H](Cc1ccc(O)cc1)NC(=O)[C@H](Cc1c[nH]cn1)NC(=O)[C@@H](N)CCCCN)C(=O)N[C@@H](Cc1ccc(O)cc1)C(=O)O [compound 24] (H-KHYLNFKPGQPMY-OH; N-terminus and C-terminus assumed) | <90 | <90 | 96.95 | 100 |  | 
12 | CSCC[C@H](NC(=O)[C@@H]1CCCN1C(=O)[C@H](CCC(N)=O)NC(=O)CNC(=O)[C@@H](NC(=O)[C@H](CCCCN)NC(=O)[C@H](Cc1ccccc1)NC(=O)[C@H](CCC(N)=O)NC(=O)[C@H](CC(C)C)NC(=O)[C@H](CC(C)C)NC(=O)[C@H](Cc1c[nH]cn1)NC(=O)[C@@H](N)Cc1c[nH]c2ccccc12)C(C)C)C(=O)N[C@@H](Cc1ccc(O)cc1)C(=O)O [compound 25] (H-WHLLQFKVGQPMY-OH; N-terminus and C-terminus assumed) | <90 | <90 | 92.63 | 100 |  | 
13 | CC[C@H](C)[C@H](NC(=O)[C@H](Cc1c[nH]c2ccccc12)NC(=O)[C@H](Cc1c[nH]cn1)NC(=O)[C@@H](N)Cc1c[nH]c2ccccc12)C(=O)N[C@@H](CCC(N)=O)C(=O)N[C@@H](Cc1ccccc1)C(=O)N[C@@H](CCCCN)C(=O)N1CCC[C@H]1C(=O)NCC(=O)N[C@@H](CCC(N)=O)C(=O)N[C@@H](CO)C(=O)N[C@@H](CCSC)C(=O)N[C@@H](Cc1ccc(O)cc1)C(=O)O [compound 26] (H-WHWIQFKPGQSMY-OH; N-terminus and C-terminus assumed) | <90 | <90 | 91.39 | 100 |  | 
